From PMC8041304, “Halogen Atoms in the Protein–Ligand System. Structural and Thermodynamic Studies of the Binding of Bromobenzotriazoles by the Catalytic Subunit of Human Protein Kinase CK2” (The Journal of Physical Chemistry. B, 2021)
Several values for one entry are separate records, joined by “and”; a condition that tells them apart may be missing. Identical values can stand only once. Like-named read-outs stand apart in the source and are kept apart here.

What was measured:
hCK2α [1] = target: T1, hCK2α (Homo sapiens, UniProt P68400); design: method as in PMID 32162783; details: cited from earlier work
T1 construct: made in house
T1 sequence (P68400 whole entry): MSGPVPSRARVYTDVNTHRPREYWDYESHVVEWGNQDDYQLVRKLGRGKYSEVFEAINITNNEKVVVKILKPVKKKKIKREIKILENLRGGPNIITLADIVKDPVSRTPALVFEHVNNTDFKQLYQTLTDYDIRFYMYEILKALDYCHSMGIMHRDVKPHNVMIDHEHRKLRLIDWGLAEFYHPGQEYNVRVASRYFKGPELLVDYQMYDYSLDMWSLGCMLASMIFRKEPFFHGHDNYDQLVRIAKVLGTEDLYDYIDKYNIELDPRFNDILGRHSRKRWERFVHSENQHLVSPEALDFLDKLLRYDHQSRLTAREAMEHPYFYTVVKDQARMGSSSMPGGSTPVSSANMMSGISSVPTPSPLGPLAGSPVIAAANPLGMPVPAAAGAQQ

hCK2α [2] = target: T1, hCK2α; experiment: Fluorescence-monitored thermal denaturation (nanoDSF) of hCK2α complexes; assay type: binding; details: protein 2.5 μM, ligand 25 μM; for Tm (°C) at pH 7.5: hCK2α in complex with ligand; for ΔTm (°C) at pH 7.5: unfolding temperature with ligand minus without
Experimental: The samples were loaded into nanoDSF grade Standard Capillaries (NanoTemper Technologies) and analyzed using the Prometheus NT.48 nanoDSF device (NanoTemper Technologies). Thermal unfolding of the protein was monitored using a linear thermal ramp (1 °C·min^–1; 20–80 °C) with an excitation power of 30%.
This prompted us to measure the thermal stabilities of hCK2α and its complexes at pH 7.5 by fluorescence-monitored thermal denaturation (nanoDSF) (Table 2).

hCK2α [3] = target: T1, hCK2α; design: method as in PMID 25891901; details: cited from earlier work
[4] = design: method as in doi:10.1016/j.molliq.2019.111527; details: calculated water–octanol partition coefficient; cited from earlier work
[5] = Density measurements: partial molar volume and thermal expansivity of the solute; assay type: physicochemical; details: 50 mM phosphate buffer pH 11; for α2^0, thermal volumetric expansivity of the solute: 20, 25, 30 °C; for V2^0, partial molar volume: 25 °C
Experimental: Partial molar volumes were estimated with a density meter Anton Paar DMA 5000 M at 20, 25, and 30 °C from the concentration–density dependency for compounds dissolved in 50 mM phosphate buffer (pH 11). The experimental procedure and the data analysis method were described previously.[36],[57],[58] The partial molar volume at 25 °C (V2^0) and thermal volumetric expansivity of the solute (α2^0 = ∂V2^0/∂T) were estimated globally from two independent dilution series. The density of pure solvent (d0) was extrapolated individually for each experimental condition (i.e., temperature and buffer preparation). The change of d0 with temperature was further used to determine thermal volumetric expansivity coefficient of the bulk buffer according to the formula α0 = −(∂d0/∂T)/d0.
According to the Lum, Chandler, and Weeks (LCW) theory, the hydrophobic interactions scale for solutes of subnanometer size with the volume of the molecule rather than its surface.[61] We have recently proposed partial molar volume as the extensive parameter to describe both the solute volume and the solute-induced reorganization of the solvation shell.[36],[57],[58],[62],[63] By analyzing density data at three temperatures (20, 25, and 30 °C), we could estimate the partial molar volume of the ligand (V2^0) and the bulk solvent density (d0(T)). We could further separate the thermal expansivity coefficient of the bulk solvent (α0) and the apparent expansivity of the solute (α2^0). The latter parameter is comprised mainly of the thermal expansion effect of the hydration shell. The values of α0 fell within the narrow range of (26.9 ± 1.3) × 10^–5 K^–1, which is close to the literature data for water (25.72 × 10^–5 K^–1 at 25 °C).[64] […] The solute thermal expansivity (α2^0), together with the change of isobaric heat capacity upon ligand binding (ΔCp,bind), has already been associated with the properties of the solvation layer.[65],[66] Importantly, α2^0 is proportional to the partial molar volume V2^0 (Figure 3D). So, V2^0 may be another descriptor of hydrophobic interactions. Consequently, the volume-normalized solute expansivity coefficient (α = α2^0/V2^0) is almost the same for all studied bromobenzotriazoles (232 ± 22 × 10^–5 K^–1). Importantly, this value substantially exceeds the thermal expansivity coefficient of the bulk buffer (α0 = 26.9 ± 1.3 × 10^–5 K^–1), clearly confirming that water organization changes with temperature more near the solute surface than in the bulk.

hCK2α [6] = target: T1, hCK2α; experiment: Isothermal titration calorimetry (NanoITC); assay type: binding; details: pH 8
Experimental: (§1) In all experiments the maximum ligand concentration of 10 μM was used to minimize a possible contribution of the secondary binding site.

[7] = design: method as in PMID 32162783; details: HPLC-derived hydrophobicity; cited from earlier work
hCK2α [8] = target: T1, hCK2α; design: method as in PMID 23155426; details: pH 7.5; cited from earlier work
[9] = design: method as in PMID 22632480; details: pH 8.0; cited from earlier work
hCK2α [10] = target: T1, hCK2α; experiment: Isothermal titration calorimetry (MicroCal iTC200), reverse titration; assay type: binding; details: for ΔGbind, free energy of binding: ITC; for ΔSrt, entropic term for loss of ligand rotational and translational degrees of freedom: calculated from ligand molecular mass; for Ts, temperature at which the entropy change upon ligand binding is zero: estimated from the linear fit of ΔS(T); for ΔSHE(Ts), hydrophobic-effect contribution to the entropy change upon binding: ≈ 1.35∙ΔCp,bind∙ln(Ts/386)
Experimental: ITC measurements were carried out using the MicroCal iTC200 (Malvern) calorimeter. The hCK2α samples were diluted to the required protein concentration with the 25 mM Tris-HCl pH 8 buffer containing 0.5 M NaCl. Stock ligand solutions were diluted with the appropriate DMSO volume prior to mixing with the buffer to obtain the required ligand concentration and a final DMSO content of 1%. Due to the limited solubility of halogenated benzotriazoles, all titration experiments were performed in the reverse mode, in which buffered ligand solution was placed in the calorimetric cell and titrated with the protein solution.[35]
as §1

hCK2α [11] = target: T1, hCK2α; design: method as in earlier work; details: ref 6 (of the supplement); read-out: KATP, dissociation constant of ATP; cited from earlier work
[12] = iTC200, 20 °C, pH 8, independent experiments separately evaluated
[13] = iTC200, 25 °C, pH 8, independent experiments separately evaluated
[14] = iTC200, 30 °C, pH 8, independent experiments separately evaluated
[15] = iTC200, 35 °C, pH 8, independent experiments separately evaluated

Compound	Tm (°C) at pH 7.5 (hCK2α [2])	ΔTm (°C) at pH 7.5 (hCK2α [2])	ΔTm (°C) at pH 8 (hCK2α [3])	log P [4]	α2^0, thermal volumetric expansivity of the solute [5]	V2^0, partial molar volume [5]	log(τ) [7]	IC50 (hCK2α [8])	fraction of the ligand that is neutral [9]	ΔGbind, free energy of binding (hCK2α [10]; 25 °C, pH 8)	ΔSrt, entropic term for loss of ligand rotational and translational degrees of freedom (hCK2α [10])	Ts, temperature at which the entropy change upon ligand binding is zero (hCK2α [10])	Kd (hCK2α [10]; [12])	Kd (hCK2α [10]; [13])	Kd (hCK2α [10]; [14])	Kd (hCK2α [10]; [15])	ΔSHE(Ts), hydrophobic-effect contribution to the entropy change upon binding (hCK2α [10])	further results
Clc1c(Br)c(Br)c(Cl)c2[nH]nnc12 [5,6-Br2-4,7-Cl2Bt]	–	–	–	–	–	–	–	–	–	–	–	–	–	–	–	–	–	affinity to hCK2α among the four isomeric dibromo–dichlorobenzotriazoles (hCK2α [1]): highest affinity
Brc1cc2nn[nH]c2cc1Br [5,6-Br2Bt, 5,6-bromobenzotriazole]	52.96 ± 0.05 °C	7.8 ± 0.1 °C	7.4 ± 0.1 °C	2.36	0.33 ± 0.14 cm^3·mol^–1·K^–1	150.0 ± 0.6 cm^3·mol^–1	–0.30	0.56 ± 0.02 µM	0.08	–40.9 ± 0.3 kJ·mol^–1	-291 J∙mol-1∙K-1	268 ± 42 K	32 nM and 33 nM	50 nM and 27 nM	84 nM and 69 nM	108 nM and 115 nM	291 ± 34 J∙mol-1∙K-1	Kd (hCK2α [6]; 15 °C): 59 ± 49 nM; ΔG (hCK2α [6]; 15 °C): -9.54 ± 0.478 kcal/mol; ΔH (hCK2α [6]; 15 °C): -13.5 ± 1.12 kcal/mol; ΔS (hCK2α [6]; 15 °C): -58 ± 18 J·mol-1·K-1; Kd (hCK2α [6]; 20 °C): 60 ± 54 nM; ΔG (hCK2α [6]; 20 °C): -9.7 ± 0.526 kcal/mol; ΔH (hCK2α [6]; 20 °C): -14.8 ± 1.34 kcal/mol; ΔS (hCK2α [6]; 20 °C): -73 ± 21 J·mol-1·K-1; Kd (hCK2α [6]; 25 °C): 46 ± 26 nM; ΔG (hCK2α [6]; 25 °C): -10 ± 0.335 kcal/mol; ΔH (hCK2α [6]; 25 °C): -16.9 ± 0.765 kcal/mol; ΔS (hCK2α [6]; 25 °C): -97 ± 12 J·mol-1·K-1; Kd (hCK2α [6]; 30 °C): 150 ± 120 nM; ΔG (hCK2α [6]; 30 °C): -9.44 ± 0.454 kcal/mol; ΔH (hCK2α [6]; 30 °C): -18.3 ± 0.693 kcal/mol; ΔS (hCK2α [6]; 30 °C): -122 ± 11 J·mol-1·K-1; Kd (hCK2α [6]; 35 °C): 93 ± 49 nM; ΔG (hCK2α [6]; 35 °C): -9.92 ± 0.311 kcal/mol; ΔH (hCK2α [6]; 35 °C): -20.8 ± 1.86 kcal/mol; ΔS (hCK2α [6]; 35 °C): -148 ± 26 J·mol-1·K-1
Brc1ccc2n[nH]nc2c1 [5-BrBt]	47.17 ± 0.02 °C	2.0 ± 0.1 °C	1.8 ± 0.1 °C	1.73	0.14 ± 0.20 cm^3·mol^–1·K^–1	132.7 ± 0.8 cm^3·mol^–1	–0.41	26 ± 3 µM	0.26	–34.4 ± 0.6 kJ·mol^–1	-277 J∙mol-1∙K-1	281 ± 152 K	730 nM and 550 nM	930 ± 280 nM	1270 nM and 990 nM	1330 nM and 1890 nM	120 ± 56 J∙mol-1∙K-1	Kd (hCK2α [10]; iTC200, 15 °C, pH 8, independent experiments separately evaluated): 880 nM and 490 nM; ΔG (hCK2α [10]; [13]): -8.22 ± 0.14 kcal/mol and -8.22 ± 0.359 kcal/mol; ΔSother, entropy change assigned to all other processes accompanying ligand binding (hCK2α [10]; ΔSrt + ΔSHE(Ts) + ΔSother = 0): 157 ± 56 J∙mol-1∙K-1
Nc1ncnc2c1ncn2[C@@H]1O[C@H](COP(=O)(O)OP(=O)(O)OP(=O)(O)O)[C@@H](O)[C@H]1O [ATP]	–	–	–	–	–	–	–	–	–	–	–	–	–	–	–	–	–	Kd (hCK2α [11]): 4300 ± 1800 nM
